What was measured:
Assay type in all cases: functional, cell-based
[1] = test system: MCF7; experiment: Antiproliferative activity against human MCF7 cells assessed as inhibition of cell proliferation incubated for 48 hrs by CCK-8 assay; settings: MCF7, 48 h
[2] = test system: A549; experiment: Antiproliferative activity against human A549 cells assessed as inhibition of cell proliferation incubated for 48 hrs by CCK-8 assay; settings: A549, 48 h
[3] = test system: HepG2; experiment: Antiproliferative activity against human HepG2 cells assessed as inhibition of cell proliferation incubated for 48 hrs by CCK-8 assay; settings: HepG2, 48 h
[4] = test system: MIA PaCa-2; experiment: Antiproliferative activity against human MIA PaCa-2 cells assessed as inhibition of cell proliferation incubated for 48 hrs by CCK-8 assay; settings: MIA PaCa-2, 48 h
[5] = test system: PANC-1; experiment: Antiproliferative activity against human PANC-1 cells assessed as inhibition of cell proliferation incubated for 48 hrs by CCK-8 assay; settings: PANC-1, 48 h

SMILES | IC50 [1] [µM] | IC50 [2] [µM] | IC50 [3] [µM] | IC50 [4] [µM] | IC50 [5] [µM]
C=C1C(=O)[C@]23[C@H](OC(=O)CCC(=O)OCCCCOC(=O)c4ccc(N=C=S)cc4)[C@H]1CC[C@H]2[C@@]12CO[C@]3(O)[C@@H](O)[C@@H]1C(C)(C)CCC2=O | 8.08 | 26.6 | – | – | –
O=c1[nH]cc(F)c(=O)[nH]1 [FLUOROURACIL] | 25.1 | 11.9 | – | – | –
C=C1C(=O)[C@]23[C@H](OC(=O)CCCC(=O)OCCCCOC(=O)c4ccc(N=C=S)cc4)[C@H]1CC[C@H]2[C@@]12CO[C@]3(O)[C@@H](O)[C@@H]1C(C)(C)CC[C@@H]2OC(C)=O | 9.99 | > 40 | – | – | –
C=C1C(=O)[C@]23[C@H](OC(=O)CCCC(=O)OCCCCOC(=O)c4ccc(N=C=S)cc4)[C@H]1CC[C@H]2[C@@]12CO[C@]3(O)[C@@H](O)[C@@H]1C(C)(C)CCC2=O | 6.93 | 24.4 | 8.69 | 11 | 18.8
C=C1C(=O)[C@]23[C@H](OC(=O)CCCC(=O)OCCCOC(=O)c4ccc(N=C=S)cc4)[C@H]1CC[C@H]2[C@@]12CO[C@]3(O)[C@@H](O)[C@@H]1C(C)(C)CC[C@@H]2O | > 40 | > 40 | – | – | –
C=C1C(=O)[C@]23[C@H](OC(=O)CCC(=O)OCCOC(=O)c4ccc(N=C=S)cc4)[C@H]1CC[C@H]2[C@@]12CO[C@]3(O)[C@@H](O)[C@@H]1C(C)(C)CC[C@@H]2O | > 40 | > 40 | – | – | –
C=C1C(=O)[C@]23[C@H](OC(=O)CCC(=O)Oc4ccc(-c5nc(=O)ss5)cc4)[C@H]1CC[C@H]2[C@@]12CO[C@]3(O)[C@@H](O)[C@@H]1C(C)(C)CCC2=O | 19.1 | 18.3 | – | – | –
C=C1C(=O)[C@]23[C@H](OC(=O)CCCC(=O)OCCCOC(=O)c4ccc(N=C=S)cc4)[C@H]1CC[C@H]2[C@@]12CO[C@]3(O)[C@@H](O)[C@@H]1C(C)(C)CC[C@@H]2OC(C)=O | 6.98 | > 40 | > 40 | 14.9 | 24.8
C=C1C(=O)[C@]23[C@H](OC(=O)CCC(=O)OCCCOC(=O)c4ccc(N=C=S)cc4)[C@H]1CC[C@H]2[C@@]12CO[C@]3(O)[C@@H](O)[C@@H]1C(C)(C)CC[C@@H]2OC(C)=O | 8.45 | 24.9 | – | – | –
C=C1C(=O)[C@]23[C@H](O)[C@H]1CC[C@H]2[C@@]12CO[C@]3(O)[C@@H](O)[C@@H]1C(C)(C)CCC2=O | 13.5 | 6.84 | – | – | –
C=C1C(=O)[C@]23[C@H](OC(=O)CCCC(=O)OCCOC(=O)c4ccc(N=C=S)cc4)[C@H]1CC[C@H]2[C@@]12CO[C@]3(O)[C@@H](O)[C@@H]1C(C)(C)CC[C@@H]2OC(C)=O | 8.7 | > 40 | – | – | –
C=C1C(=O)[C@]23[C@H](OC(=O)CCCC(=O)OCC#CCOC(=O)c4ccc(N=C=S)cc4)[C@H]1CC[C@H]2[C@@]12CO[C@]3(O)[C@@H](O)[C@@H]1C(C)(C)CCC2=O | 14 | > 40 | – | – | –
C=C1C(=O)[C@]23[C@H](OC(=O)CCCC(=O)OCc4ccc(-c5nc(=O)ss5)cc4)[C@H]1CC[C@H]2[C@@]12CO[C@]3(O)[C@@H](O)[C@@H]1C(C)(C)CC[C@@H]2OC(C)=O | 13 | 14.3 | – | – | –
C=C1C(=O)[C@]23[C@H](OC(=O)CCC(=O)OCC#CCOC(=O)c4ccc(N=C=S)cc4)[C@H]1CC[C@H]2[C@@]12CO[C@]3(O)[C@@H](O)[C@@H]1C(C)(C)CC[C@@H]2O | > 40 | > 40 | – | – | –
C=C1C(=O)[C@]23[C@H](OC(=O)CCCC(=O)OCC#CCOC(=O)c4ccc(N=C=S)cc4)[C@H]1CC[C@H]2[C@@]12CO[C@]3(O)[C@@H](O)[C@@H]1C(C)(C)CC[C@@H]2O | > 40 | > 40 | – | – | –
C=C1C(=O)[C@]23[C@H](O)[C@H]1CC[C@H]2[C@@]12CO[C@@]3(O)[C@@H](O)[C@@H]1C(C)(C)CC[C@@H]2OC(C)=O | 8.76 | 5.47 | – | – | –
C=C1C(=O)[C@]23[C@H](OC(=O)CCCC(=O)OCC#CCOC(=O)c4ccc(N=C=S)cc4)[C@H]1CC[C@H]2[C@@]12CO[C@]3(O)[C@@H](O)[C@@H]1C(C)(C)CC[C@@H]2OC(C)=O | 12.8 | > 40 | – | – | –
C=C1C(=O)[C@]23[C@H](OC(=O)CCCC(=O)OCCCCOC(=O)c4ccc(N=C=S)cc4)[C@H]1CC[C@H]2[C@@]12CO[C@]3(O)[C@@H](O)[C@@H]1C(C)(C)CC[C@@H]2O | > 40 | > 40 | – | – | –
C=C1C(=O)[C@]23[C@H](OC(=O)CCCC(=O)OCc4ccc(-c5nc(=O)ss5)cc4)[C@H]1CC[C@H]2[C@@]12CO[C@]3(O)[C@@H](O)[C@@H]1C(C)(C)CC[C@@H]2O | > 40 | > 40 | – | – | –
C=C1C(=O)[C@]23[C@H](OC(=O)CCC(=O)Oc4ccc(-c5nc(=O)ss5)cc4)[C@H]1CC[C@H]2[C@@]12CO[C@]3(O)[C@@H](O)[C@@H]1C(C)(C)CC[C@@H]2OC(C)=O | 15.4 | 15.2 | – | – | –

SMILES | IC50 [1] [µM] | IC50 [2] [µM] | IC50 [3] [µM] | IC50 [4] [µM] | IC50 [5] [µM]
C=C1C(=O)[C@]23[C@H](OC(=O)CCC(=O)OCCCOC(=O)c4ccc(N=C=S)cc4)[C@H]1CC[C@H]2[C@@]12CO[C@]3(O)[C@@H](O)[C@@H]1C(C)(C)CC[C@@H]2O | > 40 | 36.5 | – | – | –
C=C1C(=O)[C@]23[C@H](OC(=O)CCC(=O)Oc4ccc(-c5nc(=O)ss5)cc4)[C@H]1CC[C@H]2[C@@]12CO[C@]3(O)[C@@H](O)[C@@H]1C(C)(C)CC[C@@H]2O | > 40 | 24.2 | – | – | –
C=C1C(=O)[C@]23[C@H](O)[C@H]1CC[C@H]2[C@@]12CO[C@]3(O)[C@@H](O)[C@@H]1C(C)(C)CC[C@@H]2O [ORIDONIN] | 16 | 14.9 | 28.1 | 5.97 | 19.1
C=C1C(=O)[C@]23[C@H](OC(=O)CCC(=O)OCCCCOC(=O)c4ccc(N=C=S)cc4)[C@H]1CC[C@H]2[C@@]12CO[C@]3(O)[C@@H](O)[C@@H]1C(C)(C)CC[C@@H]2O | > 40 | > 40 | – | – | –
C=C1C(=O)[C@]23[C@H](OC(=O)CCC(=O)OCCOC(=O)c4ccc(N=C=S)cc4)[C@H]1CC[C@H]2[C@@]12CO[C@]3(O)[C@@H](O)[C@@H]1C(C)(C)CCC2=O | 16.7 | 32.2 | – | – | –
C=C1C(=O)[C@]23[C@H](OC(=O)CCC(=O)OCCCCOC(=O)c4ccc(N=C=S)cc4)[C@H]1CC[C@H]2[C@@]12CO[C@]3(O)[C@@H](O)[C@@H]1C(C)(C)CC[C@@H]2OC(C)=O | 11.6 | > 40 | – | – | –
C=C1C(=O)[C@]23[C@H](OC(=O)CCC(=O)OCCCOC(=O)c4ccc(N=C=S)cc4)[C@H]1CC[C@H]2[C@@]12CO[C@]3(O)[C@@H](O)[C@@H]1C(C)(C)CCC2=O | 10.4 | 16.3 | – | – | –
COc1cccc2c1C(=O)c1c(O)c3c(c(O)c1C2=O)C[C@@](O)(C(=O)CO)C[C@@H]3O[C@H]1C[C@H](N)[C@H](O)[C@H](C)O1 [DOXORUBICIN] | – | – | – | 1.16 | 1.19
C=C1C(=O)[C@]23[C@H](OC(=O)c4ccc(N=C=S)cc4)[C@H]1CC[C@H]2[C@@]12CO[C@]3(O)[C@@H](O)[C@@H]1C(C)(C)CCC2=O | 7.08 | 21.2 | – | – | –
C=C1C(=O)[C@]23[C@H](OC(=O)CCC(=O)OCC#CCOC(=O)c4ccc(N=C=S)cc4)[C@H]1CC[C@H]2[C@@]12CO[C@]3(O)[C@@H](O)[C@@H]1C(C)(C)CCC2=O | 9.93 | > 40 | – | – | –
C=C1C(=O)[C@]23[C@H](OC(=O)CCC(=O)OCC#CCOC(=O)c4ccc(N=C=S)cc4)[C@H]1CC[C@H]2[C@@]12CO[C@]3(O)[C@@H](O)[C@@H]1C(C)(C)CC[C@@H]2OC(C)=O | 4.49 | > 40 | 7.65 | 28.7 | > 40
C=C1C(=O)[C@]23[C@H](OC(=O)CCC(=O)OCCOC(=O)c4ccc(N=C=S)cc4)[C@H]1CC[C@H]2[C@@]12CO[C@]3(O)[C@@H](O)[C@@H]1C(C)(C)CC[C@@H]2OC(C)=O | 8.8 | 21.2 | – | – | –
O=c1nc(-c2ccc(O)cc2)ss1 | > 40 | > 40 | – | – | –
C=C1C(=O)[C@]23[C@H](OC(=O)CCCC(=O)OCc4ccc(-c5nc(=O)ss5)cc4)[C@H]1CC[C@H]2[C@@]12CO[C@]3(O)[C@@H](O)[C@@H]1C(C)(C)CCC2=O | > 40 | 28.5 | – | – | –
O=C(O)c1ccc(N=C=S)cc1 | > 40 | > 40 | > 40 | > 40 | > 40
C=C1C(=O)[C@]23[C@H](OC(=O)CCCC(=O)OCCCOC(=O)c4ccc(N=C=S)cc4)[C@H]1CC[C@H]2[C@@]12CO[C@]3(O)[C@@H](O)[C@@H]1C(C)(C)CCC2=O | 8.43 | 23.2 | – | – | –
C=C1C(=O)[C@]23[C@H](OC(=O)c4ccc(N=C=S)cc4)[C@H]1CC[C@H]2[C@@]12CO[C@]3(O)[C@@H](O)[C@@H]1C(C)(C)CC[C@@H]2OC(C)=O | 13 | 28.1 | – | – | –
C=C1C(=O)[C@]23[C@H](OC(=O)CCCC(=O)OCCOC(=O)c4ccc(N=C=S)cc4)[C@H]1CC[C@H]2[C@@]12CO[C@]3(O)[C@@H](O)[C@@H]1C(C)(C)CCC2=O | 19.2 | 32.4 | – | – | –
C=C1C(=O)[C@]23[C@H](OC(=O)CCCC(=O)OCCOC(=O)c4ccc(N=C=S)cc4)[C@H]1CC[C@H]2[C@@]12CO[C@]3(O)[C@@H](O)[C@@H]1C(C)(C)CC[C@@H]2O | > 40 | > 40 | – | – | –

From ChEMBL document CHEMBL6087397, “H2S-releasing oridonin derivatives with improved antitumor activity by inhibiting the PI3K/AKT pathway” (Bioorg Med Chem, 2024)
